Source: article PMC11574021, “CEP192 localises mitotic Aurora-A activity by priming its interaction with TPX2” (The EMBO Journal, 2024)

test system: Aurora-A-pT288 in U251 cells; assay: Immunofluorescence, Aurora-A-pT288 spindle pole signal intensity, U251; assay type: cell-based, Homo sapiens; conditions: U251, siRNA 48 h or Aurora-A inhibitor 30 min (250 nM)
Experimental: Drugs were resuspended in DMSO to the stock concentrations indicated in square brackets.
For immunofluorescence, 1 × 10^5 cells were seeded in six-well plates and simultaneously transfected with 60 pmol siRNA duplex and 3 µl transfection reagent diluted in 200 µl Opti-MEM serum-free medium. Growth medium was added to a final volume of 2 ml. For western blotting, 1 × 10^6 cells were seeded in 10 cm dishes and transfected with 300 pmol siRNA duplex and 15 µl transfection reagent diluted in 1000 µl Opti-MEM. Growth medium was added to a final volume of 10 ml. Cells were incubated with siRNA for 48 h prior to fixation or harvesting. As a negative control (siControl) Silencer select negative control No.1 siRNA was transfected as above. For TACC3 depletion, where two siRNA duplexes were used, 40 pmol of each was transfected per well.
For siRNA depletion, 1 × 10^5 cells were seeded in six-well plates and transfected as described above for 48 h prior to fixation. For all other experiments, 2.5 × 10^5 cells were seeded in six-well plates and grown for 24 h before fixation. […] Cells in Fig. EV4A were fixed using 4% (wt/v) paraformaldehyde (PFA) in PBS for 12 min, followed by 10 min quenching in 50 mM NH4Cl in PBS and 5 min of permeabilization with 0.2% (v/v) Triton X-100 in PBS, all at room temperature. For centriole staining in Fig. EV4E, cells were fixed in pre-chilled methanol for 10 min at −20 °C, incubated in PBS for 10 min and then 5 min in 0.5% Triton-X-100, 0.5% Tween, 0.05% SDS in PBS (v/v). […]
Here “area” refers to the area of DAPI-stained DNA, determined by thresholding (default mode) the region of interest. […] The diameter calculated, therefore, refers to that of a circle with equivalent area to the DAPI signal measured previously. The area of the nuclear DAPI signal (Appendix Fig. S6I) was determined by thresholding (as above). […] All fluorescence intensity and area measurements were obtained from maximum intensity z-projections. […]

Compound | centrosomal/spindle pole Aurora-A-pT288 signal
5′-CAAACAACUUGGAAAUCGAtt-3′ [siCEP192] | diminished the intensity of pT288 signal
5′-CGGUAGUGAUAAAAGCUCAtt-3′ [siTPX2] | diminished the intensity of pT288 signal
COc1cc(Nc2ncc3c(n2)-c2ccc(Cl)cc2C(c2c(F)cccc2OC)=NC3)ccc1C(=O)O [Alisertib] | obliterated
